{"source": "paper PMC10709007", "about": "“GPR162 is a beta cell CART receptor” (iScience, 2023)", "key": {"GPR162 [1]": {"system": "GPR162", "test": "Co-immunoprecipitation of CART and GPR162 in INS-1 832/13 cells", "type": "binding, rat", "conditions": "10^-7M CARTp55-102, 30 min at 4°C, BS3 cross-link, precipitation with CART antibody, GPR162 blot; n = 3 biological replicates", "description": "INS-1 832/13 cell lysates were incubated with 10^−7M CARTp55-102 for 30 min at 4°C and then cross-linked with 1 mM BS[3] for 30 min at room temperature, then precipitated using biotin-labelled CART antibody (code H003-62, dilution 1:5000, Phoenix Pharmaceuticals) bound to streptavidin-coated magnetic Dynabeads (Thermo Fisher). Cells lysates were then washed five times in ice-cold PBS and membrane proteins were extracted using MemPER Plus (Thermo Scientific). Protein concentration was then measured using BCA assay (BioRad, Hercules, CA) and 20 μg loaded on a 10% Mini-PROTEAN TGX Stain-Free gel (BioRad). After electrophoresis (200 V for 40 min) and transfer, the PVDF membrane was blocked in TBS-T with 5% fat free dry milk. Primary antibody (anti-rabbit GPR162, code TA331838, 1:100 dilution, Origene, Rockville, MD) was dissolved in 1XTBS-T with 5% BSA (overnight at 4°C). Secondary antibody (anti-rabbit IgG; 1:2500 dilution) was diluted in 1XTBS-T with 5% dry milk. All wash steps were for 10 min in 1XTBS-T."}, "PC-12 cells": {"system": "PC-12 cells", "conditions": "RNA interference of Gpr160; cited from earlier work", "excerpt": "(§1) When studying neuropathic pain, Yosten et al.[11] found GPR160 to be necessary for CARTp-mediated cell activation in cell culture. […] However, whether GPR160 is a receptor for CART in the b ..."}, "[2]": {"system": "dorsal horn of the spinal cord", "conditions": "intrathecal injections; cited from earlier work", "excerpt": "as §1"}, "GPR160": {"system": "GPR160", "test": "Proximity ligation assay (PLA) CART-GPR160 in INS-1 832/13 cells", "type": "binding, rat", "conditions": "10^-7M CARTp55-102, 15 minutes (Figure S3B), n = 8", "description": "INS-1 832/13 cells were seeded in 8-well tissue culture chambers (Sarstedt, Nümbrecht, Germany). […] Cells were rinsed quickly in ice-cold 1XPBS and then washed twice with ice-cold PBS. Cells were then fixed for 20 min in 4% paraformaldehyde, washed 2 × 10 min in 1XPBS and permeabilized for 15 min in PBS +0.25% Triton X-100. Proximity ligation assay (PLA) (DuoLink In situ Red Starter Kit Goat/Rabbit, Sigma Aldrich) was performed according to the instructions provided by the manufacturers. The following antibody combinations were used for the PLA: goat anti-GPR162 (sc-138323, dilution 1:500, Santa Cruz) with rabbit anti-CART (code 2059A, dilution 1:5000, kindly provided by Dr. Jes T. Clausen, Novo Nordisk, Måløv, Denmark), and goat anti-CART (code sc-18068, dilution 1:400, Santa Cruz) with rabbit anti-GPR162 (code PA5-33655, dilution 1:500, Thermo Scientific). Anti-rabbit GPR160 (code PA5-33650) was combined with anti-goat CART (code sc-18068 from Santa Cruz). Anti-rabbit GNA13 (PA5-100644) was combined with anti-goat GPR162 (sc-138323). Negative controls were omission of both antibodies and the combination of the CART antibody with an antibody toward a receptor with a known ligand. […]"}, "KATO III cells": {"system": "KATO III cells", "conditions": "KATO III cells, RNA interference of Gpr160; cited from earlier work", "excerpt": "When studying neuropathic pain, Yosten et al.[11] found GPR160 to be necessary for CARTp-mediated cell activation in cell culture. […] Information on GPR160 is scarce, but it has been reported to be a potential marker for prostate cancer,[24] where it is involved in apoptosis and cell-cycle arrest.[25] […] Recently, the notion of GPR160 being the ..."}, "GPR162 [3]": {"system": "GPR162", "test": "Proximity ligation assay (PLA) CART-GPR162 in INS-1 832/13 cells", "type": "binding, rat", "description": "INS-1 832/13 cells were seeded in 8-well tissue culture chambers (Sarstedt, Nümbrecht, Germany). 10^−7M rat CARTp55-102 (Phoenix Pharmaceuticals, Burlingame, CA) was added to fresh media and cells were incubated for 5 min in a humidified atmosphere (37°C, 5% CO2). Cells were rinsed quickly in ice-cold 1XPBS and then washed twice with ice-cold PBS. Cells were then fixed for 20 min in 4% paraformaldehyde, washed 2 × 10 min in 1XPBS and permeabilized for 15 min in PBS +0.25% Triton X-100. Proximity ligation assay (PLA) (DuoLink In situ Red Starter Kit Goat/Rabbit, Sigma Aldrich) was performed according to the instructions provided by the manufacturers. The following antibody combinations were used for the PLA: goat anti-GPR162 (sc-138323, dilution 1:500, Santa Cruz) with rabbit anti-CART (code 2059A, dilution 1:5000, kindly provided by Dr. Jes T. Clausen, Novo Nordisk, Måløv, Denmark), and goat anti-CART (code sc-18068, dilution 1:400, Santa Cruz) with rabbit anti-GPR162 (code PA5-33655, dilution 1:500, Thermo Scientific). Anti-rabbit GPR160 (code PA5-33650) was combined with anti-goat CART (code sc-18068 from Santa Cruz). Anti-rabbit GNA13 (PA5-100644) was combined with anti-goat GPR162 (sc-138323). Negative controls were omission of both antibodies and the combination of the CART antibody with an antibody toward a receptor with a known ligand. […]"}}, "note": "Where no end group is shown, it is not given here."}
{"substance": "CARTp55-102: Rat, mouse CARTp55-102 (Phoenix Pharmaceuticals, Cat#003-62); human form Cat#003-60; cocaine- and amphetamine-regulated transcript peptide (IPIYEKKYGQVPMCDAGEQCAVRKGARIGKLCDCPRGTSCNSFLLKCL; ends and bridges not checked; cysteine pairing not given here)", "values": [{"measurement": "Co-immunoprecipitated GPR162", "setting": "GPR162 [1]", "result": "stronger binding for GPR162 in the CARTp-treated cells than the binding observed in control cells"}, {"measurement": "ERK phosphorylation after Gpr160 RNA interference", "setting": "PC-12 cells", "result": "RNA interference of Gpr160 prevented CART from activating c-FOS expression and phosphorylation of ERK in vitro in KATO III cells and PC-12 cells, respectively"}, {"measurement": "Phosphorylation of ERK and CREB", "setting": "[2]", "result": "induced phosphorylation of ERK and CREB"}, {"measurement": "CART-GPR160 interaction (PLA)", "setting": "GPR160", "result": "no"}, {"measurement": "CART-GPR160 interaction (PLA)", "setting": "GPR160; listed as CART", "result": "failed to detect"}, {"measurement": "c-FOS expression after Gpr160 RNA interference", "setting": "KATO III cells", "result": "RNA interference of Gpr160 prevented CART from activating c-FOS expression"}, {"measurement": "CART-GPR162 interaction (PLA)", "setting": "GPR162 [3]; 10^-7M rat CARTp55-102, 5 min, 37°C, n = 8", "result": "confirmed an interaction between GPR162 and CART"}, {"measurement": "Reduction of CART-GPR162 interaction (PLA) in Gpr162 siRNA cells", "setting": "GPR162 [3]; Gpr162 siRNA vs control cells, 10^-7M CARTp55-102, n = 8, p < 0.005", "result": 90, "unit": "%"}]}
